From the supplement of paper PMC10307832

Key:
Assay in all cases: relative viability (nuclei count vs DMSO), 5 days (fraction); higher = more cells survive
[1] = test system: ABC-1
Summary of the method: (§1)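 Nuclei were stained with Hoechst during a one-step fixation (final 0.05% Triton X-100, 1% formaldehyde, 1 ug/ml Hoechst) carried out 5 days after dosing, then counted on 4× images. The cells, lung cancer lines in 1536-well plates, had been dosed by pin tool the day after seeding with one drug alone or a fixed anchor-drug dose plus five library-drug doses (not always all listed) in √10 steps. Relative viability is the nuclei count in treated wells divided by that in vehicle wells, and each value is the median of duplicate plates.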

[2] = test system: Calu-6
Summary of the method: as §1

[3] = test system: EBC-1
Summary of the method: as §1

[4] = test system: EKVX
Summary of the method: as §1

[5] = test system: IA-LM
Summary of the method: as §1

[6] = test system: NCI-H1299
Summary of the method: as §1

[7] = test system: NCI-H1703
Summary of the method: as §1

[8] = test system: NCI-H2126
Summary of the method: as §1

Compound: O=C(O)c1ccc(-c2c[nH]c3ncc(-c4ccccc4)cc23)cc1C1CCCC1 + CC(C)C[C@H](NC(=O)[C@H](Cc1ccccc1)NC(=O)c1cnccn1)B(O)O [Bortezomib] (partner 0.002 µM)
- relative viability ([1]; first compound 0.04 µM): 0.264
- relative viability ([1]; first compound 0.1265 µM): 0.299
- relative viability ([1]; first compound 0.4 µM): 0.274
- relative viability ([1]; first compound 1.265 µM): 0.251
- relative viability ([2]; first compound 0.04 µM): 0.912
- relative viability ([2]; first compound 0.1265 µM): 1
- relative viability ([2]; first compound 0.4 µM): 0.907
- relative viability ([2]; first compound 1.265 µM): 0.661
- relative viability ([3]; first compound 0.04 µM): 0.567
- relative viability ([3]; first compound 0.1265 µM): 0.583
- relative viability ([3]; first compound 0.4 µM): 0.452
- relative viability ([3]; first compound 1.265 µM): 0.308
- relative viability ([4]; first compound 0.04 µM): 1.01
- relative viability ([4]; first compound 0.1265 µM): 0.873
- relative viability ([4]; first compound 0.4 µM): 1.03
- relative viability ([4]; first compound 1.265 µM): 0.728
- relative viability ([5]; first compound 0.04 µM): 0.915
- relative viability ([5]; first compound 0.1265 µM): 0.868
- relative viability ([5]; first compound 0.4 µM): 0.761
- relative viability ([5]; first compound 1.265 µM): 0.658
- relative viability ([6]; first compound 0.04 µM): 1.05
- relative viability ([6]; first compound 0.1265 µM): 1.03
- relative viability ([6]; first compound 0.4 µM): 0.986
- relative viability ([6]; first compound 1.265 µM): 0.893
- relative viability ([7]; first compound 0.1265 µM): 0.235
- relative viability ([7]; first compound 0.4 µM): 0.3
- relative viability ([7]; first compound 1.265 µM): 0.433
- relative viability ([8]; first compound 0.04 µM): 1.16
- relative viability ([8]; first compound 0.1265 µM): 1.13
- relative viability ([8]; first compound 0.4 µM): 1.1
- relative viability ([8]; first compound 1.265 µM): 1.02

Compound: NC(=O)Nc1cc(-c2cccc(F)c2)sc1C(=O)N[C@H]1CCCNC1 [AZD7762] + CC(C)C[C@H](NC(=O)[C@H](Cc1ccccc1)NC(=O)c1cnccn1)B(O)O [Bortezomib] (partner 0.002 µM)
- relative viability ([1]; first compound 0.01 µM): 0.276
- relative viability ([1]; first compound 0.03162 µM): 0.389
- relative viability ([1]; first compound 0.1 µM): 0.3
- relative viability ([1]; first compound 0.3162 µM): 0.26
- relative viability ([1]; first compound 1 µM): 0.202
- relative viability ([2]; first compound 0.01 µM): 1.03
- relative viability ([2]; first compound 0.03162 µM): 0.96
- relative viability ([2]; first compound 0.1 µM): 0.782
- relative viability ([2]; first compound 0.3162 µM): 0.245
- relative viability ([2]; first compound 1 µM): 0.152
- relative viability ([3]; first compound 0.01 µM): 0.633
- relative viability ([3]; first compound 0.03162 µM): 0.508
- relative viability ([3]; first compound 0.1 µM): 0.566
- relative viability ([3]; first compound 0.3162 µM): 0.493
- relative viability ([3]; first compound 1 µM): 0.309
- relative viability ([4]; first compound 0.01 µM): 0.996
- relative viability ([4]; first compound 0.03162 µM): 1.04
- relative viability ([4]; first compound 0.1 µM): 0.974
- relative viability ([4]; first compound 0.3162 µM): 0.912
- relative viability ([4]; first compound 1 µM): 0.688
- relative viability ([5]; first compound 0.01 µM): 1.05
- relative viability ([5]; first compound 0.03162 µM): 0.851
- relative viability ([5]; first compound 0.1 µM): 1.22
- relative viability ([5]; first compound 0.3162 µM): 1.14
- relative viability ([5]; first compound 1 µM): 0.253
- relative viability ([6]; first compound 0.01 µM): 1.07
- relative viability ([6]; first compound 0.03162 µM): 1.04
- relative viability ([6]; first compound 0.1 µM): 1.04
- relative viability ([6]; first compound 0.3162 µM): 1.04
- relative viability ([6]; first compound 1 µM): 0.964
- relative viability ([7]; first compound 0.01 µM): 0.409
- relative viability ([7]; first compound 0.03162 µM): 0.182
- relative viability ([7]; first compound 0.1 µM): 0.167
- relative viability ([7]; first compound 0.3162 µM): 0.176
- relative viability ([7]; first compound 1 µM): 0.124
- relative viability ([8]; first compound 0.01 µM): 1.06
- relative viability ([8]; first compound 0.03162 µM): 1.11
- relative viability ([8]; first compound 0.1 µM): 1.18
- relative viability ([8]; first compound 0.3162 µM): 1.2
- relative viability ([8]; first compound 1 µM): 1.07

Compound: C=C1C(=O)O[C@@H](CCCCCCCC)[C@@H]1C(=O)O [C-75] + CC(C)C[C@H](NC(=O)[C@H](Cc1ccccc1)NC(=O)c1cnccn1)B(O)O [Bortezomib] (partner 0.002 µM)
- relative viability ([1]; first compound 0.08 µM): 0.295
- relative viability ([1]; first compound 0.253 µM): 0.314
- relative viability ([1]; first compound 0.8 µM): 0.373
- relative viability ([1]; first compound 2.53 µM): 0.178
- relative viability ([1]; first compound 8 µM): 0.234
- relative viability ([2]; first compound 0.08 µM): 1.01
- relative viability ([2]; first compound 0.253 µM): 1.16
- relative viability ([2]; first compound 0.8 µM): 1.02
- relative viability ([2]; first compound 2.53 µM): 0.92
- relative viability ([2]; first compound 8 µM): 0.855
- relative viability ([3]; first compound 0.08 µM): 0.57
- relative viability ([3]; first compound 0.253 µM): 0.512
- relative viability ([3]; first compound 0.8 µM): 0.498
- relative viability ([3]; first compound 2.53 µM): 0.505
- relative viability ([3]; first compound 8 µM): 0.221
- relative viability ([4]; first compound 0.08 µM): 0.996
- relative viability ([4]; first compound 0.253 µM): 1.09
- relative viability ([4]; first compound 0.8 µM): 1.17
- relative viability ([4]; first compound 2.53 µM): 0.947
- relative viability ([4]; first compound 8 µM): 1.01
- relative viability ([5]; first compound 0.08 µM): 0.79
- relative viability ([5]; first compound 0.253 µM): 0.61
- relative viability ([5]; first compound 0.8 µM): 0.728
- relative viability ([5]; first compound 2.53 µM): 0.736
- relative viability ([5]; first compound 8 µM): 0.428
- relative viability ([6]; first compound 0.08 µM): 1.07
- relative viability ([6]; first compound 0.253 µM): 0.932
- relative viability ([6]; first compound 0.8 µM): 1.01
- relative viability ([6]; first compound 2.53 µM): 1.02
- relative viability ([6]; first compound 8 µM): 1.07
- relative viability ([7]; first compound 0.08 µM): 0.506
- relative viability ([7]; first compound 0.253 µM): 0.435
- relative viability ([7]; first compound 0.8 µM): 0.31
- relative viability ([7]; first compound 2.53 µM): 0.292
- relative viability ([7]; first compound 8 µM): 0.192
- relative viability ([8]; first compound 0.08 µM): 1.1
- relative viability ([8]; first compound 0.253 µM): 1.29
- relative viability ([8]; first compound 0.8 µM): 1.09
- relative viability ([8]; first compound 2.53 µM): 0.886
- relative viability ([8]; first compound 8 µM): 1.08

Compound: CC1(C)CCC(c2ccc(Cl)cc2)=C(CN2CCN(c3ccc(C(=O)NS(=O)(=O)c4ccc(N[C@H](CCN5CCOCC5)CSc5ccccc5)c(S(=O)(=O)C(F)(F)F)c4)cc3)CC2)C1 [Navitoclax] + CC(C)C[C@H](NC(=O)[C@H](Cc1ccccc1)NC(=O)c1cnccn1)B(O)O [Bortezomib] (partner 0.002 µM)
- relative viability ([1]; first compound 0.005 µM): 0.28
- relative viability ([1]; first compound 0.01581 µM): 0.286
- relative viability ([1]; first compound 0.05 µM): 0.265
- relative viability ([1]; first compound 0.1581 µM): 0.254
- relative viability ([1]; first compound 0.5 µM): 0.216
- relative viability ([2]; first compound 0.005 µM): 0.999
- relative viability ([2]; first compound 0.01581 µM): 1.16
- relative viability ([2]; first compound 0.05 µM): 1.13
- relative viability ([2]; first compound 0.1581 µM): 0.972
- relative viability ([2]; first compound 0.5 µM): 0.877
- relative viability ([3]; first compound 0.005 µM): 0.614
- relative viability ([3]; first compound 0.01581 µM): 0.649
- relative viability ([3]; first compound 0.05 µM): 0.575
- relative viability ([3]; first compound 0.1581 µM): 0.616
- relative viability ([3]; first compound 0.5 µM): 0.383
- relative viability ([4]; first compound 0.005 µM): 1.01
- relative viability ([4]; first compound 0.01581 µM): 1.01
- relative viability ([4]; first compound 0.05 µM): 0.68
- relative viability ([4]; first compound 0.1581 µM): 1.04
- relative viability ([4]; first compound 0.5 µM): 0.963
- relative viability ([5]; first compound 0.005 µM): 0.926
- relative viability ([5]; first compound 0.01581 µM): 0.818
- relative viability ([5]; first compound 0.05 µM): 0.824
- relative viability ([5]; first compound 0.1581 µM): 0.896
- relative viability ([5]; first compound 0.5 µM): 0.747
- relative viability ([6]; first compound 0.005 µM): 1.04
- relative viability ([6]; first compound 0.01581 µM): 1.12
- relative viability ([6]; first compound 0.05 µM): 1.01
- relative viability ([6]; first compound 0.1581 µM): 1.05
- relative viability ([6]; first compound 0.5 µM): 1.02
- relative viability ([7]; first compound 0.005 µM): 0.214
- relative viability ([7]; first compound 0.01581 µM): 0.275
- relative viability ([7]; first compound 0.05 µM): 0.313
- relative viability ([7]; first compound 0.1581 µM): 0.65
- relative viability ([7]; first compound 0.5 µM): 0.224
- relative viability ([8]; first compound 0.005 µM): 1.08
- relative viability ([8]; first compound 0.01581 µM): 1.12
- relative viability ([8]; first compound 0.05 µM): 1.07
- relative viability ([8]; first compound 0.1581 µM): 1.12
- relative viability ([8]; first compound 0.5 µM): 1.15

Compound: Oc1nc(-c2ccc(C(F)(F)F)cc2)nc2c1CSCC2 [XAV939] + CC(C)C[C@H](NC(=O)[C@H](Cc1ccccc1)NC(=O)c1cnccn1)B(O)O [Bortezomib] (partner 0.002 µM)
- relative viability ([1]; first compound 0.08 µM): 0.315
- relative viability ([1]; first compound 0.253 µM): 0.307
- relative viability ([1]; first compound 0.8 µM): 0.254
- relative viability ([1]; first compound 2.53 µM): 0.252
- relative viability ([2]; first compound 0.08 µM): 0.936
- relative viability ([2]; first compound 0.253 µM): 0.978
- relative viability ([2]; first compound 0.8 µM): 1.05
- relative viability ([2]; first compound 2.53 µM): 0.978
- relative viability ([3]; first compound 0.08 µM): 0.589
- relative viability ([3]; first compound 0.253 µM): 0.478
- relative viability ([3]; first compound 0.8 µM): 0.584
- relative viability ([3]; first compound 2.53 µM): 0.476
- relative viability ([4]; first compound 0.08 µM): 1.12
- relative viability ([4]; first compound 0.253 µM): 0.882
- relative viability ([4]; first compound 0.8 µM): 0.773
- relative viability ([4]; first compound 2.53 µM): 0.573
- relative viability ([5]; first compound 0.08 µM): 0.736
- relative viability ([5]; first compound 0.253 µM): 0.617
- relative viability ([5]; first compound 0.8 µM): 0.607
- relative viability ([5]; first compound 2.53 µM): 0.487
- relative viability ([6]; first compound 0.08 µM): 1.06
- relative viability ([6]; first compound 0.253 µM): 0.996
- relative viability ([6]; first compound 0.8 µM): 1.07
- relative viability ([6]; first compound 2.53 µM): 1.05
- relative viability ([7]; first compound 0.08 µM): 0.451
- relative viability ([7]; first compound 0.253 µM): 0.417
- relative viability ([7]; first compound 0.8 µM): 0.293
- relative viability ([7]; first compound 2.53 µM): 0.285
- relative viability ([8]; first compound 0.08 µM): 1.18
- relative viability ([8]; first compound 0.253 µM): 0.984
- relative viability ([8]; first compound 0.8 µM): 1.08
- relative viability ([8]; first compound 2.53 µM): 1.02
